Values after ≈ are worked out from the molar mass of the structure shown.
How the values were obtained:
Type in all cases: functional
Pseudomonas aeruginosa = experiment: Antibacterial activity against Pseudomonas aeruginosa NCIM-2036 after 24 hrs by broth dilution method; conditions: NCIM-2036, 24 h
Bacillus cereus = experiment: Antibacterial activity against Bacillus cereus NCIM-2156 after 24 hrs by broth dilution method; conditions: NCIM-2156, 24 h
Proteus vulgaris = experiment: Antibacterial activity against Proteus vulgaris NCIM-2027 after 24 hrs by broth dilution method; conditions: NCIM-2027, 24 h
Bacillus subtilis = experiment: Antibacterial activity against Bacillus subtilis NCIM-2063 after 24 hrs by broth dilution method; conditions: NCIM-2063, 24 h
Escherichia coli = experiment: Antibacterial activity against Escherichia coli NCIM-2065 after 24 hrs by broth dilution method; conditions: NCIM-2065, 24 h
Staphylococcus aureus [1] = experiment: Antibacterial activity against Staphylococcus aureus NCIM-2079 after 24 hrs by broth dilution method; conditions: NCIM-2079, 24 h
Staphylococcus aureus [2] = experiment: Antibiofilm activity against Staphylococcus aureus NCIM-2079 after 16 hrs

Row | SMILES | MIC (Pseudomonas aeruginosa) [µg/mL] | MIC (Bacillus cereus) [µg/mL] | MIC (Proteus vulgaris) [µg/mL] | MIC (Bacillus subtilis) [µg/mL] | MIC (Escherichia coli) [µg/mL] | MIC (Staphylococcus aureus [1]) [µg/mL] | Activity (Staphylococcus aureus [2]) [µg/mL]
1 | O=[N+]([O-])c1cccc(Nc2nc(NC(=S)N3N=C(c4ccccc4)CC3c3ccccc3)nc(Nc3cccc([N+](=O)[O-])c3)n2)c1 (configuration not stated) | 7.81 (≈ 12.3 µM) | 7.81 (≈ 12.3 µM) | 7.81 (≈ 12.3 µM) | 15.6 (≈ 24.7 µM) | 7.81 (≈ 12.3 µM) | 7.81 (≈ 12.3 µM) | 31.25
2 | O=[N+]([O-])c1cccc(Nc2nc(NC(=S)N3N=C(c4ccccc4)CC3c3ccccc3[N+](=O)[O-])nc(Nc3cccc([N+](=O)[O-])c3)n2)c1 (configuration not stated) | 125 (≈ 184 µM) | 62.5 (≈ 92.2 µM) | 62.5 (≈ 92.2 µM) | 62.5 (≈ 92.2 µM) | 125 (≈ 184 µM) | 15.6 (≈ 23 µM) | 125
3 | O=[N+]([O-])c1ccc(C2CC(c3ccccc3)=NN2C(=S)Nc2nc(Nc3cccc([N+](=O)[O-])c3)nc(Nc3cccc([N+](=O)[O-])c3)n2)cc1 (configuration not stated) | 62.5 (≈ 92.2 µM) | 125 (≈ 184 µM) | 62.5 (≈ 92.2 µM) | 31.2 (≈ 46.1 µM) | 62.5 (≈ 92.2 µM) | 31.2 (≈ 46.1 µM) | 62.5
4 | O=[N+]([O-])c1cccc(Nc2nc(NC(=S)N3N=C(c4ccccc4)CC3c3ccccc3Cl)nc(Nc3cccc([N+](=O)[O-])c3)n2)c1 (configuration not stated) | 15.6 (≈ 23.4 µM) | 15.6 (≈ 23.4 µM) | 31.2 (≈ 46.8 µM) | 15.6 (≈ 23.4 µM) | 15.6 (≈ 23.4 µM) | 15.6 (≈ 23.4 µM) | 62.5
5 | Fc1ccc(Nc2nc(NC(=S)N3N=C(c4ccccc4)CC3c3ccccc3)nc(Nc3ccc(F)cc3)n2)cc1 (configuration not stated) | 15.6 (≈ 27 µM) | 3.91 (≈ 6.76 µM) | 15.6 (≈ 27 µM) | 7.81 (≈ 13.5 µM) | 15.6 (≈ 27 µM) | 7.81 (≈ 13.5 µM) | 15.62
6 | Fc1ccc(Nc2nc(NC(=S)N3N=C(c4ccccc4)CC3c3ccccc3Cl)nc(Nc3ccc(F)cc3)n2)cc1 (configuration not stated) | 15.6 (≈ 25.5 µM) | 15.6 (≈ 25.5 µM) | 7.81 (≈ 12.7 µM) | 7.81 (≈ 12.7 µM) | 15.6 (≈ 25.5 µM) | 15.6 (≈ 25.5 µM) | 62.5
7 | C=CC1=C(C(=O)O)N2C(=O)[C@@H](NC(=O)/C(=N\OCC(=O)O)c3csc(N)n3)[C@H]2SC1 [CEFIXIME] | 3.91 (≈ 8.62 µM) | 3.91 (≈ 8.62 µM) | 7.81 (≈ 17.2 µM) | 1.95 (≈ 4.3 µM) | 3.91 (≈ 8.62 µM) | 7.81 (≈ 17.2 µM) | 
8 | CN[C@H](CC(C)C)C(=O)N[C@H]1C(=O)N[C@@H](CC(N)=O)C(=O)N[C@H]2C(=O)N[C@H]3C(=O)N[C@H](C(=O)N[C@H](C(=O)O)c4cc(O)cc(O)c4-c4cc3ccc4O)[C@H](O)c3ccc(c(Cl)c3)Oc3cc2cc(c3O[C@@H]2O[C@H](CO)[C@@H](O)[C@H](O)[C@H]2O[C@H]2C[C@](C)(N)[C@H](O)[C@H](C)O2)Oc2ccc(cc2Cl)[C@H]1O [VANCOMYCIN] |  |  |  |  |  |  | 3.91

Continued, in another order:

Row | MIC (Pseudomonas aeruginosa) [µg/mL] | MIC (Bacillus cereus) [µg/mL] | MIC (Proteus vulgaris) [µg/mL] | MIC (Bacillus subtilis) [µg/mL] | MIC (Escherichia coli) [µg/mL] | MIC (Staphylococcus aureus [1]) [µg/mL] | SMILES | Activity (Staphylococcus aureus [2]) [µg/mL]
9 | 31.2 (≈ 51.1 µM) | 31.2 (≈ 51.1 µM) | 15.6 (≈ 25.5 µM) | 7.81 (≈ 12.8 µM) | 31.2 (≈ 51.1 µM) | 15.6 (≈ 25.5 µM) | S=C(Nc1nc(Nc2ccc(Cl)cc2)nc(Nc2ccc(Cl)cc2)n1)N1N=C(c2ccccc2)CC1c1ccccc1 (configuration not stated) | 31.25
10 | 125 (≈ 190 µM) | 31.2 (≈ 47.6 µM) | 62.5 (≈ 95.2 µM) | 15.6 (≈ 23.8 µM) | 125 (≈ 190 µM) | 62.5 (≈ 95.2 µM) | O=[N+]([O-])c1ccccc1C1CC(c2ccccc2)=NN1C(=S)Nc1nc(Nc2ccc(Cl)cc2)nc(Nc2ccc(Cl)cc2)n1 (configuration not stated) | 125
11 | 62.5 (≈ 95.2 µM) | 125 (≈ 190 µM) | 62.5 (≈ 95.2 µM) | 31.2 (≈ 47.6 µM) | 62.5 (≈ 95.2 µM) | 125 (≈ 190 µM) | O=[N+]([O-])c1ccc(C2CC(c3ccccc3)=NN2C(=S)Nc2nc(Nc3ccc(Cl)cc3)nc(Nc3ccc(Cl)cc3)n2)cc1 (configuration not stated) | 125
12 | 15.6 (≈ 24.2 µM) | 62.5 (≈ 96.7 µM) | 15.6 (≈ 24.2 µM) | 3.91 (≈ 6.05 µM) | 15.6 (≈ 24.2 µM) | 15.6 (≈ 24.2 µM) | S=C(Nc1nc(Nc2ccc(Cl)cc2)nc(Nc2ccc(Cl)cc2)n1)N1N=C(c2ccccc2)CC1c1ccccc1Cl (configuration not stated) | 31.25
13 | 7.81 (≈ 12.1 µM) | 15.6 (≈ 24.2 µM) | 15.6 (≈ 24.2 µM) | 3.91 (≈ 6.05 µM) | 7.81 (≈ 12.1 µM) | 15.6 (≈ 24.2 µM) | S=C(Nc1nc(Nc2ccc(Cl)cc2)nc(Nc2ccc(Cl)cc2)n1)N1N=C(c2ccccc2)CC1c1ccc(Cl)cc1 (configuration not stated) | 62.5
14 | 31.2 (≈ 46.8 µM) | 7.81 (≈ 11.7 µM) | 15.6 (≈ 23.4 µM) | 7.81 (≈ 11.7 µM) | 31.2 (≈ 46.8 µM) | 15.6 (≈ 23.4 µM) | O=[N+]([O-])c1cccc(Nc2nc(NC(=S)N3N=C(c4ccccc4)CC3c3ccc(Cl)cc3)nc(Nc3cccc([N+](=O)[O-])c3)n2)c1 (configuration not stated) | 15.62
15 | 31.2 (≈ 50.1 µM) | 62.5 (≈ 100 µM) | 31.2 (≈ 50.1 µM) | 31.2 (≈ 50.1 µM) | 31.2 (≈ 50.1 µM) | 31.2 (≈ 50.1 µM) | O=[N+]([O-])c1ccccc1C1CC(c2ccccc2)=NN1C(=S)Nc1nc(Nc2ccc(F)cc2)nc(Nc2ccc(F)cc2)n1 (configuration not stated) | 31.25
16 | 31.2 (≈ 50.1 µM) | 31.2 (≈ 50.1 µM) | 62.5 (≈ 100 µM) | 15.6 (≈ 25 µM) | 31.2 (≈ 50.1 µM) | 31.2 (≈ 50.1 µM) | O=[N+]([O-])c1ccc(C2CC(c3ccccc3)=NN2C(=S)Nc2nc(Nc3ccc(F)cc3)nc(Nc3ccc(F)cc3)n2)cc1 (configuration not stated) | 62.5
17 | 7.81 (≈ 12.7 µM) | 7.81 (≈ 12.7 µM) | 15.6 (≈ 25.5 µM) | 3.91 (≈ 6.38 µM) | 7.81 (≈ 12.7 µM) | 31.2 (≈ 51 µM) | Fc1ccc(Nc2nc(NC(=S)N3N=C(c4ccccc4)CC3c3ccc(Cl)cc3)nc(Nc3ccc(F)cc3)n2)cc1 (configuration not stated) | 31.25

— ChEMBL document CHEMBL3352800, “Structure-guided discovery of 1,3,5-triazine-pyrazole conjugates as antibacterial and antibiofilm agent against pathogens causing human diseases with favorable metabolic fate” (2014)
